Laboratory results as given in ChEMBL document CHEMBL3885861, “Open TG-GATES”.

Species: Rattus norvegicus
Assay: Open TG-GATES - Regimen: Daily Repeat
Type: toxicity, organism-based, Sprague-Dawley
Design: regimen Daily Repeat, gender Male, age 6 weeks
Details: in vivo, iv, route intravenous injection; for APTT / Bas / Eos / Fbg / Hb / Ht / Lym / MCH / MCHC / MCV / Mono / Neu / PT / Plat / RBC / Ret / WBC: tissue Blood; for KIDNEY_L / KIDNEY_R / KIDNEY_TOTAL: tissue Kidney; for LIVER: tissue Liver; for A/G / ALP / ALT / AST / BUN / CRE / Ca / Cl / DBIL / GLC / IP / K / LDH / Na / PL / RALB / TBIL / TC / TG / TP / gamma-GTP: tissue Plasma
[1] = 6 mg/kg, 72 h, dose level Middle, time 3 day
[2] = 6 mg/kg, […], dose level Middle, time 7 day
[3] = 6 mg/kg, […], dose level Middle, time 14 day
[4] = 6 mg/kg, […], dose level Middle, time 28 day
[5] = 20 mg/kg, 72 h, dose level High, time 3 day
[6] = 20 mg/kg, […], dose level High, time 7 day
[7] = 20 mg/kg, […], dose level High, time 14 day
[8] = 20 mg/kg, […], dose level High, time 28 day

NCCBr [BROMOETHANAMINE]
TERMINAL_BW [1]: 227.7 g
APTT [1]: 22.4 s
Bas [1]: 0%
Eos [1]: 1%
Fbg [1]: 318.4 mg/dL
Hb [1]: 13.8 g/dL
Ht [1]: 40%
Lym [1]: 83.6%
MCH [1]: 21.2 pg
MCHC [1]: 34.4%
MCV [1]: 61.7 fL
Mono [1]: 2%
Neu [1]: 12.2%
PT [1]: 16.2 s
Plat [1]: 121.7 x10_4/uL
RBC [1]: 648 x10_4/ul
Ret [1]: 4.6%
WBC [1]: 75.6 x10_2/uL
KIDNEY_L [1]: 1 g
KIDNEY_R [1]: 1 g
KIDNEY_TOTAL [1]: 2 g
LIVER [1]: 10.9 g
A/G [1]: 1.3
ALP [1]: 1767.4 IU/L
ALT [1]: 39.6 IU/L
AST [1]: 69 IU/L
BUN [1]: 15.6 mg/dL
CRE [1]: 0.2 mg/dL
Ca [1]: 10.9 mg/dL
Cl [1]: 106.6 meq/L
DBIL [1]: 0 mg/dL
GLC [1]: 169 mg/dL
IP [1]: 6.9 mg/dL
K [1]: 4.6 meq/L
LDH [1]: 209.6 IU/L
Na [1]: 142 meq/L
PL [1]: 138.8 mg/dL
RALB [1]: 3.1 g/dL
TBIL [1]: 0.006 mg/dL
TC [1]: 71 mg/dL
TG [1]: 113.8 mg/dL
TP [1]: 5.6 g/dL
gamma-GTP [1]: 1.4 IU/L
TERMINAL_BW [2]: 261 g
TERMINAL_BW [3]: 314.5 g
TERMINAL_BW [4]: 361.2 g
APTT [2]: 23.5 s
Bas [2]: 0%
Eos [2]: 1.4%
Fbg [2]: 282.6 mg/dL
Hb [2]: 13.9 g/dL
Ht [2]: 40.1%
Lym [2]: 83%
MCH [2]: 21.6 pg
MCHC [2]: 34.7%
MCV [2]: 62.2 fL
Mono [2]: 2.8%
Neu [2]: 11.8%
PT [2]: 15.8 s
Plat [2]: 123.4 x10_4/uL
RBC [2]: 645 x10_4/ul
Ret [2]: 3.9%
WBC [2]: 116 x10_2/uL
APTT [3]: 22.4 s
Bas [3]: 0%
Eos [3]: 1.2%
Fbg [3]: 327.4 mg/dL
Hb [3]: 13.8 g/dL
Ht [3]: 40.3%
Lym [3]: 85.2%
MCH [3]: 20.4 pg
MCHC [3]: 34.3%
MCV [3]: 59.5 fL
Mono [3]: 2%
Neu [3]: 10.6%
PT [3]: 15.5 s
Plat [3]: 132 x10_4/uL
RBC [3]: 676.6 x10_4/ul
Ret [3]: 3.8%
WBC [3]: 119.2 x10_2/uL
APTT [4]: 26 s
Bas [4]: 0%
Eos [4]: 1.4%
Fbg [4]: 312.2 mg/dL
Hb [4]: 15.8 g/dL
Ht [4]: 42.9%
Lym [4]: 84.2%
MCH [4]: 20.4 pg
MCHC [4]: 36.9%
MCV [4]: 55.4 fL
Mono [4]: 1.4%
Neu [4]: 12.2%
PT [4]: 16.4 s
Plat [4]: 110.1 x10_4/uL
RBC [4]: 775.2 x10_4/ul
Ret [4]: 2.2%
WBC [4]: 90.4 x10_2/uL
KIDNEY_L [2]: 1.1 g
KIDNEY_R [2]: 1.1 g
KIDNEY_TOTAL [2]: 2.1 g
KIDNEY_L [3]: 1.3 g
KIDNEY_R [3]: 1.2 g
KIDNEY_TOTAL [3]: 2.5 g
KIDNEY_L [4]: 1.3 g
KIDNEY_R [4]: 1.4 g
KIDNEY_TOTAL [4]: 2.7 g
LIVER [2]: 12.5 g
LIVER [3]: 14.7 g
LIVER [4]: 15.7 g
A/G [2]: 1.2
ALP [2]: 1617 IU/L
ALT [2]: 39.4 IU/L
AST [2]: 71.4 IU/L
BUN [2]: 17.6 mg/dL
CRE [2]: 0.2 mg/dL
Ca [2]: 10.8 mg/dL
Cl [2]: 107.4 meq/L
DBIL [2]: 0 mg/dL
GLC [2]: 182.2 mg/dL
IP [2]: 6.9 mg/dL
K [2]: 4.5 meq/L
LDH [2]: 204 IU/L
Na [2]: 141 meq/L
PL [2]: 140 mg/dL
RALB [2]: 3 g/dL
TBIL [2]: 0.002 mg/dL
TC [2]: 72.4 mg/dL
TG [2]: 119 mg/dL
TP [2]: 5.5 g/dL
gamma-GTP [2]: 1.2 IU/L
A/G [3]: 1.1
ALP [3]: 1499 IU/L
ALT [3]: 41 IU/L
AST [3]: 69 IU/L
BUN [3]: 18.2 mg/dL
CRE [3]: 0.2 mg/dL
Ca [3]: 10.8 mg/dL
Cl [3]: 107 meq/L
DBIL [3]: 0 mg/dL
GLC [3]: 170.2 mg/dL
IP [3]: 7.1 mg/dL
K [3]: 4.4 meq/L
LDH [3]: 142.6 IU/L
Na [3]: 143.2 meq/L
PL [3]: 145.8 mg/dL
RALB [3]: 3 g/dL
TBIL [3]: 0.004 mg/dL
TC [3]: 77.6 mg/dL
TG [3]: 98.2 mg/dL
TP [3]: 5.8 g/dL
gamma-GTP [3]: 2.8 IU/L
A/G [4]: 1.1
ALP [4]: 1273.6 IU/L
ALT [4]: 32.8 IU/L
AST [4]: 55 IU/L
BUN [4]: 18.2 mg/dL
CRE [4]: 0.2 mg/dL
Ca [4]: 10.5 mg/dL
Cl [4]: 106.4 meq/L
DBIL [4]: 0 mg/dL
GLC [4]: 185.8 mg/dL
IP [4]: 6.5 mg/dL
K [4]: 4.1 meq/L
LDH [4]: 118 IU/L
Na [4]: 145 meq/L
PL [4]: 131.8 mg/dL
RALB [4]: 3.2 g/dL
TBIL [4]: 0.004 mg/dL
TC [4]: 65.2 mg/dL
TG [4]: 112.2 mg/dL
TP [4]: 6.2 g/dL
gamma-GTP [4]: 2.6 IU/L
TERMINAL_BW [5]: 210.6 g
APTT [5]: 22.4 s
Bas [5]: 0%
Eos [5]: 1%
Fbg [5]: 351 mg/dL
Hb [5]: 13.7 g/dL
Ht [5]: 39.6%
Lym [5]: 83.4%
MCH [5]: 21.2 pg
MCHC [5]: 34.5%
MCV [5]: 61.3 fL
Mono [5]: 3%
Neu [5]: 11%
PT [5]: 16.3 s
Plat [5]: 130.9 x10_4/uL
RBC [5]: 646.2 x10_4/ul
Ret [5]: 2.4%
WBC [5]: 69.9 x10_2/uL
KIDNEY_L [5]: 1 g
KIDNEY_R [5]: 1 g
KIDNEY_TOTAL [5]: 2 g
LIVER [5]: 9.3 g
A/G [5]: 1.2
ALP [5]: 1285.8 IU/L
ALT [5]: 37 IU/L
AST [5]: 63.2 IU/L
BUN [5]: 16 mg/dL
CRE [5]: 0.2 mg/dL
Ca [5]: 10.6 mg/dL
Cl [5]: 109.2 meq/L
DBIL [5]: 0.004 mg/dL
GLC [5]: 160 mg/dL
IP [5]: 5.8 mg/dL
K [5]: 4.5 meq/L
LDH [5]: 206.4 IU/L
Na [5]: 141.6 meq/L
PL [5]: 140 mg/dL
RALB [5]: 3 g/dL
TBIL [5]: 0.014 mg/dL
TC [5]: 77.8 mg/dL
TG [5]: 53.4 mg/dL
TP [5]: 5.6 g/dL
gamma-GTP [5]: 1.4 IU/L
TERMINAL_BW [6]: 227.1 g
TERMINAL_BW [7]: 262.8 g
TERMINAL_BW [8]: 323 g
APTT [6]: 23 s
Bas [6]: 0%
Eos [6]: 0.8%
Fbg [6]: 332.6 mg/dL
Hb [6]: 14.1 g/dL
Ht [6]: 40.5%
Lym [6]: 86.8%
MCH [6]: 20.9 pg
MCHC [6]: 34.8%
MCV [6]: 59.9 fL
Mono [6]: 2.4%
Neu [6]: 8.6%
PT [6]: 15.9 s
Plat [6]: 140.5 x10_4/uL
RBC [6]: 676 x10_4/ul
Ret [6]: 1.6%
WBC [6]: 87 x10_2/uL
APTT [7]: 24.6 s
Bas [7]: 0%
Eos [7]: 0.2%
Fbg [7]: 332.6 mg/dL
Hb [7]: 14.1 g/dL
Ht [7]: 40.7%
Lym [7]: 87.4%
MCH [7]: 20.1 pg
MCHC [7]: 34.6%
MCV [7]: 58.1 fL
Mono [7]: 2%
Neu [7]: 9.2%
PT [7]: 15.6 s
Plat [7]: 134.2 x10_4/uL
RBC [7]: 700.8 x10_4/ul
Ret [7]: 2.7%
WBC [7]: 76.8 x10_2/uL
APTT [8]: 25.9 s
Bas [8]: 0%
Eos [8]: 1.4%
Fbg [8]: 333.4 mg/dL
Hb [8]: 14.8 g/dL
Ht [8]: 40.7%
Lym [8]: 79%
MCH [8]: 19.9 pg
MCHC [8]: 36.3%
MCV [8]: 54.8 fL
Mono [8]: 3%
Neu [8]: 15.6%
PT [8]: 16.1 s
Plat [8]: 120.7 x10_4/uL
RBC [8]: 744 x10_4/ul
Ret [8]: 3.3%
WBC [8]: 65.8 x10_2/uL
KIDNEY_L [6]: 1.1 g
KIDNEY_R [6]: 1.1 g
KIDNEY_TOTAL [6]: 2.2 g
KIDNEY_L [7]: 1.2 g
KIDNEY_R [7]: 1.2 g
KIDNEY_TOTAL [7]: 2.4 g
KIDNEY_L [8]: 1.4 g
KIDNEY_R [8]: 1.4 g
KIDNEY_TOTAL [8]: 2.8 g
LIVER [6]: 11.1 g
LIVER [7]: 13.6 g
LIVER [8]: 18.5 g
A/G [6]: 1.1
ALP [6]: 1454.4 IU/L
ALT [6]: 31.6 IU/L
AST [6]: 53.4 IU/L
BUN [6]: 15.6 mg/dL
CRE [6]: 0.2 mg/dL
Ca [6]: 10.7 mg/dL
Cl [6]: 109 meq/L
DBIL [6]: 0 mg/dL
GLC [6]: 174.2 mg/dL
IP [6]: 7 mg/dL
K [6]: 4.3 meq/L
LDH [6]: 176.6 IU/L
Na [6]: 141.2 meq/L
PL [6]: 147.4 mg/dL
RALB [6]: 3 g/dL
TBIL [6]: 0.006 mg/dL
TC [6]: 75.2 mg/dL
TG [6]: 98.6 mg/dL
TP [6]: 5.7 g/dL
gamma-GTP [6]: 1.6 IU/L
A/G [7]: 1.1
ALP [7]: 1344.2 IU/L
ALT [7]: 34.2 IU/L
AST [7]: 49.4 IU/L
BUN [7]: 19.2 mg/dL
CRE [7]: 0.1 mg/dL
Ca [7]: 10.8 mg/dL
Cl [7]: 110.2 meq/L
DBIL [7]: 0 mg/dL
GLC [7]: 170.4 mg/dL
IP [7]: 6.8 mg/dL
K [7]: 4.3 meq/L
LDH [7]: 135.6 IU/L
Na [7]: 144.4 meq/L
PL [7]: 143 mg/dL
RALB [7]: 3.1 g/dL
TBIL [7]: 0.012 mg/dL
TC [7]: 69.2 mg/dL
TG [7]: 93.6 mg/dL
TP [7]: 6 g/dL
gamma-GTP [7]: 2.6 IU/L
A/G [8]: 1
ALP [8]: 1076.6 IU/L
ALT [8]: 39 IU/L
AST [8]: 43 IU/L
BUN [8]: 20.2 mg/dL
CRE [8]: 0.1 mg/dL
Ca [8]: 10.7 mg/dL
Cl [8]: 106.2 meq/L
DBIL [8]: 0 mg/dL
GLC [8]: 178 mg/dL
IP [8]: 7 mg/dL
K [8]: 4.2 meq/L
LDH [8]: 118 IU/L
Na [8]: 144.2 meq/L
PL [8]: 170 mg/dL
RALB [8]: 3.4 g/dL
TBIL [8]: 0.042 mg/dL
TC [8]: 77.6 mg/dL
TG [8]: 143.6 mg/dL
TP [8]: 6.6 g/dL
gamma-GTP [8]: 4 IU/L
